# Experimental data from patent US20250369032A1 (priority 2023, published 2025).
# Several values for one entry are separate records, joined by “and”; a condition that tells them apart may be missing. Equal entries are not always repeated. Where two headings read alike, the source gives them in different places.
# What was measured:
# [1] = target: T1, alkaline phosphatase (Bos taurus, UniProt P19111)
# Protocol: Two different dosing concentrations were evaluated, 10 μL of test chemical added to 90 μL of alkaline phosphatase reaction reagent and 50 μL of test chemical added to 50 μL of alkaline phosphatase reaction reagent; all aliquoted in 96-well plates.
# • 1. Alkaline phosphatase reaction reagent (fresh, 1:100) • a. Take 4 mL of AP (1:10) stock solution, add to 36 mL PBS. Vortex mix and then invert to mix 10 times • 2. Prepare alkaline phosphatase reaction reagent for every condition • a. 200 μL AP (1:10) in 1.8 mL PBS • b. […] 200 μL AP (1:10) in 1.8 mL Acetone • 3. Prepare 96-well plates for dosing • 4. Prepare 96-well plates for PNPP reading (3 wells for each test chemical) • a. Aliquot with 200 μL PNPP
# • 1. Set 1 • a. 10 μL chemical added to 90 μL AP reaction reagent • 2. Set 2 • a. 50 μL chemical added to 50 μL AP reaction reagent • 3. Incubate for 3 hours • a. To the prepared 96-well plate with 200 μL PNPP aliquoted, add 20 μL • b. […] To the prepared 96-well plate with 200 μL PNPP aliquoted, add 20 μL • b.
# In our next study, we focused on ethanol and buffered saline (potassium chloride, potassium phosphate monobasic, sodium chloride, sodium phosphate dibasic) as our solvents.
# • 1. Alkaline phosphatase reaction reagent • a. 1:100 • i. PBS: Take 400 μL of AP (1:10) stock solution, add to 3.6 mL PBS. Vortex mix and then invert to mix 10 times • ii. […] Vortex mix and then invert to mix 10 times • b. 1:1000 • i. PBS: Take 400 μL of AP (1:100) stock solution, add to 3.6 mL PBS. Vortex mix and then invert to mix 10 times • ii. […] Vortex mix and then invert to mix 10 times • 2. Prepare 0.5 mL microcentrifuge tubes for dosing • a. One set for room temperature, one set for 37° C. • 3. Prepare 96-well plates for PNPP reading (3 wells for each test chemical) • a. Aliquot with 200 μL PNPP
# • 1. In each microcentrifuge tube for each condition, add 180 μL of the corresponding AP reaction reagent • 2. Add 20 μL of the test chemical to each microcentrifuge tube • 3. Incubate for 4 hours (one set at room temperature; one set at 37° C.) • 4. To prepared 96-well plates with 200 μL PNPP aliquoted, add 20 μL of each microcentrifuge tube to the corresponding well • 5.
# [2] = tested on: skin; conditions: cited from earlier work
# [3] = target: T1, alkaline phosphatase; format: biochemical; design: purchased Sigma Aldrich, St. Louis, MO P0114 (original source); P7640 (second source, 'new AP' condition only)
# [4] = tested on: endogenous skin phosphatase; format: biochemical, porcine; conditions: optical density compared to the naïve condition
# Protocol: Our next studies involved applying the test substance (500 μL) directly to the epidermis side of previously frozen porcine skin (Spear Products, Coopersburg, PA) that is placed in a holder that only exposes the epidermis side for 30 minutes, adding phosphate buffered saline (PBS) with added sodium azide (metabolic inhibitor that ensure no viable tissue), then aliquoting into cuvettes to read at an optical density of 300 nm. […] So, at the end of the initial studies described above, almost out of frustration, we tried to probe for released phosphatase activity using p-Nitrophenyl phosphate disodium salt (PNPP; Sigma Aldrich, St. Louis, MO) substrate solution to detect any presence of phosphatase.
# • 1. Thaw 2 pieces of frozen porcine skin • a. Punch out as many skin discs and mount in holders • 2. Label cuvettes (3 for each chemical)
# • 1. Add 500 μL of test chemical to holder; incubate at room temperate for 30 minutes • 2. After 30 minutes, add 2 mL of PBS-Azide to both the holder containing the test chemical; forcefully pipette and re-pipette 10 times • 3. From the holder, aliquot 400 μL into 3 cuvettes; forcefully pipette and re-pipette 3 times before dispensing into cuvettes
# Skin corrosion by GHS Category 1 dermal corrosive chemicals results in the disintegration of the epidermis into the dermis.
# [5] = tested on: porcine skin; conditions: R 1 and 2
# Protocol: Our initial studies involved using fresh and frozen porcine skin “buttons”. These buttons were punched out of porcine skin (Spear Products, Cooopersburg, PA) using a […] biopsy punch tool. Three different kinds of skin buttons were prepared from fresh porcine skin, frozen porcine skin, and frozen porcine skin with the fatty layer removed. […] The next day, the tubes were taken out and vortexed and 500 μL of the solution was aliquoted into cuvettes to read at three different optical density wavelengths (OD190, OD290, OD300) to evaluate the best response.
# • 1. Thaw 2 pieces of frozen porcine skin • 2. Punch out buttons: 24 buttons in each tube filled with 40 mL PBS-Azide
# • 1. Plate layout for dosing:
# • 1. Dose each tissue with 140 μL of test chemical • 2.
# • 1. Take out of incubator and vortex pulse 3× • 2. Aliquot 500 μL to cuvette and read results at OD190, OD290, and OD300
# There were three readings done at an optical density of 190, 290, and 300 nm to evaluate the best response. […] To address the variable exposure conditions, our next studies involved placing a larger porcine skin section into a holder that exposes only the epidermis side with no potential for test chemical exposure from the backside or through the sides.
# [6] = target: T1, alkaline phosphatase; format: biochemical; design: purchased Sigma Aldrich, St. Louis, MO P0114 (original source); P7640 (second source, 'new AP' condition only); conditions: for prediction based on OD405 values (FIG. 6D): original alkaline phosphatase 1:100 dilution; for optical density readings (FIG. 4): repeat, without discs
# From the text: Our next study focused on an in vitro method of detecting the potential of dermal corrosives to inhibit nonspecific phosphatases that may be released from the skin. We decided to test pure […] instead of relying on endogenous skin phosphatase. Alkaline phosphatase (Sigma Aldrich, St. Louis, MO) was purchased and suspended to make the reaction reagent (10,000 units). […] We note that the ratio used was 0.1 g/ml or 10% chemical-which is far in excess of any pharmaceutical applications. We further note that pharmaceutical enzyme inhibition tests, studies an use involve highly specific active site binding and these assays are conducted at ratios of micrograms-femtograms per ml. These studies are done at these ranges because these are the realistic concentrations for drug applications and therapeutics. […] So when a 50 Kg human consumes the tables, the tissues will be exposed at a 5 mg/50 kg=0.1 mg/kg=0.0000001 g/ml.
# Next two quantitative methods were evaluated: 1) using the discs parts from our OptiSafe™ test method and 2) directly into the 24-well plate.
# • 1. Alkaline phosphatase reaction reagent • a. Take 1 vial of AP, add 1 mL of PBS, mix by pipette/re-pipette 10 times • b. To a 50 mL conical tube, add 1 mL of the AP solution prepared above and 40 mL of PBS • 2. Prepare two 24-well plates (1 with discs, 1 without discs) • 3. […] Aliquot 200 μL PNPP and PBS
# • 1. Plate 1 (No Discs) • a. Add 1.25 mL from the prepared PBS-AP conical tube to each well (11 wells) • b. Add 100 μL of the test material to the well, mix with the same pipette tip, dispose and repeat for the rest of the test materials • c. Wrap the plate in saran wrap and place into the container • 2. Plate 2 (Discs) • a. Configure the 11 discs in the plate so the plate cover is stable • b. Add 1.25 mL from the prepared PBS-AP conical tube to each well (11 wells) • c. Add 100 μL of the test material to the center of the disc and repeat for the rest of the test materials • d. Put the plate cover on and place into the container • 3. […] Incubate for 1 hour
# For the new study, the alkaline phosphatase was suspended in phosphate buffered saline (PBS) to make the reaction reagent. Then, 100 μL of the test chemical is added directly into the corresponding wells on a 24-well plate with 1.25 mL of alkaline phosphatase reaction reagent already aliquoted.
# • 1. Alkaline phosphatase reaction reagent • a. Take 1 vial of AP, add 1 mL of PBS, mix by pipette/re-pipette 10 times • b. To a 50 mL conical tube, add 1 mL of the AP solution prepared above and 40 mL of PBS • 2. Prepare two 24-well plates • 3. […] Aliquot with 200 μL PNPP and PBS • 4. Prepare glass vials Repeat Procedure from Jan. […] 24-well plate • a. Add 1.25 mL from the prepared PBS-AP conical tube to each well (11 wells) • b. Add 100 μL of the test material to the well, mix with the same pipette tip, dispose and repeat for the rest of the test materials • c. Wrap the plate in saran wrap and place into the container • 2. […] To the prepared 96-well plate with 200 μL PNPP or PBS, add 20 μL from the 24-well plate • 4. Incubate for 1 hour • 5.
# • 1. 24-well plate • a. Add 1.25 mL from the prepared PBS-AP conical tube to each well (11 wells) • b. Add 100 μL of the test material to the well, mix with the same pipette tip, dispose and repeat for the rest of the test materials • c. After 10 minutes, mix each well • 2.
# [7] = skin, chemical lists of the protocols
# [8] = 1:100, 20 μL into 180 μL, 0.5 mL microcentrifuge tubes, 4 hours RT, PNPP 60 min, 405 nm
# [9] = average of R1-R3, 1:100, 20 μL into 180 μL, 4 hours RT, PNPP 60 min, 405 nm
# [10] = 4 mL glass vials, 30 μL into 300 μL, 1:100, 4 hours room temperature, 3 mL PNPP 1 hour
# [11] = original alkaline phosphatase 1:1, 18 hours room temperature
# [12] = original alkaline phosphatase 1:100 (100 units), 100 μL into 1 mL, 18 hours room temperature, PNPP 1 hour
# [13] = 10-minute test chemical exposure
# [14] = fresh porcine skin, 140 μL, 18 hours at 37° C. in PBS-Azide
# [15] = frozen porcine skin with fat layer removed
# [16] = 18 hours 37° C., PNPP 1 hour, 405 nm
# T1 sequence (P19111 20-506): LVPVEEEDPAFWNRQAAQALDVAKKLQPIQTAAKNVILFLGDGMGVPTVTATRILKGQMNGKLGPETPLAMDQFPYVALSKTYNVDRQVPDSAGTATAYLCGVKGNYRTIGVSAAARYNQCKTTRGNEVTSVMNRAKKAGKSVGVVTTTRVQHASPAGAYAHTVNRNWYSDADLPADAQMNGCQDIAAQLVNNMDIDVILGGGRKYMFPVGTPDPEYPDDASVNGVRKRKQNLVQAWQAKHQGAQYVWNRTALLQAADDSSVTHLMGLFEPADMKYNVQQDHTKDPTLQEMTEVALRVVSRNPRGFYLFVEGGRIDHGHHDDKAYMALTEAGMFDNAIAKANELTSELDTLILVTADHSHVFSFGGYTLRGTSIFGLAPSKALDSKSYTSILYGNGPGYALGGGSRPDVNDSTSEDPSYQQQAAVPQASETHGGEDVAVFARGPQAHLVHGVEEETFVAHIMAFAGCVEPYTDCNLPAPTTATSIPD
smiles,measurement,setting,value
CCCCCCCCC=O [Nonyl aldehyde],OD405 reading (FIG. 7A),[1],1.589
same,OD405 reading (FIG. 7B),[1],3.078
same,in vivo GHS,[2]; [7],"Cat. 2 (Category 2 (irritation; mean score of ≥2.3 and ≤4.0 for erythema/eschar or for oedema in at least 2 of 3 tested animals at 24, 48, and 72 hours or inflammation that persists to the end of 14 days))"
same,A1-Results R1,[3]; [8],3.393
same,A1-Results R3,[3]; [8],3.050
same,A1-Results AVG,[3]; [9],3.296
CC(C)N(C)C [Dimethylisopropylamine],OD405 readings (FIG. 11D),[1]; [10],2.926 and 2.922 and 2.852
same,in vivo GHS,[2]; [7],Cat. 1B/1C
same,A1-Results R1,[3]; [8],3.423
same,A1-Results R3,[3]; [8],3.485
same,OD405 readings (FIG. 11B),[3]; [10],3.354 and 3.466 and 3.502
same,A1-Results AVG,[3]; [9],3.458
same,prediction based on OD405 values (FIG. 6B),[3]; [11],incorrectly predicted
same,OD405 readings (FIG. 6D),[3]; [12],3.466 and 3.502
"C=CCCC=C [1,5-Hexadiene]",OD405 reading (FIG. 7A),[1],1.702
same,OD405 reading (FIG. 7B),[1],2.947
same,A1-Results R1,[3]; [8],3.502
same,A1-Results R3,[3]; [8],3.498
same,A1-Results AVG,[3]; [9],3.496
CN(C)CCCNCCCN [Dimethyldipropylenetriamine],Corrosive,[2]; Table 2,Yes
same,percent of phosphatase measured (first reading),[4],23.5%
same,percent of phosphatase measured (second reading),[4],17.7%
same,"percent of phosphatase measured, average",[4],20.6%
same,A1-Results R1,[3]; [8],0.118
same,A1-Results R3,[3]; [8],0.124
same,1-hour PNPP incubation readings (FIG. 5B),[3]; [13],0.352 and 0.283 and 0.333
same,4-hour PNPP incubation readings (FIG. 5C),[3]; [13],0.122 and 0.116 and 0.114
same,A1-Results AVG,[3]; [9],0.121
same,optical density readings (FIG. 3B),"[3]; without discs, 100 μL into 1.25 mL reaction reagent (10,000 units), 18 hours 37° C., PNPP 1 hour, 405 nm",0.138 and 0.176 and 0.133
same,OD190,[5]; [14],>3A
same,OD290,[5]; [14],0.922 and 1.016
same,OD300,[5]; [14],0.819 and 0.887
same,OD190,[5]; [15],0.610 and 0.594
same,OD290,[5]; [15],0.238 and 0.170
same,OD300,[5]; [15],0.162 and 0.118
same,OD190,[5]; frozen porcine skin,>3A
same,OD290,[5]; frozen porcine skin,0.936 and 0.775
same,OD300,[5]; frozen porcine skin,0.806 and 0.636
same,10-minute PNPP incubation readings (FIG. 5A),[6]; [13],3.449 and 3.502 and 3.500
same,18-hour PNPP incubation readings (FIG. 5D),[6]; [13],0.112 and 0.105 and 0.110
same,prediction based on OD405 values (FIG. 6C),[6]; original alkaline phosphatase 1:10 dilution,mispredicted
same,prediction based on OD405 values (FIG. 6D),[6],correctly predicted
same,optical density readings (FIG. 4),[6]; [16],0.132 and 0.128 and 0.127
same,optical density readings (FIG. 3A),"[6]; with discs, 100 μL into 1.25 mL reaction reagent (10,000 units), 18 hours 37° C., PNPP 1 hour, 405 nm",0.152 and 0.159 and 0.140
"CN(C)Cc1ccccc1 [N,N-Dimethylbenzylamine]",OD405 reading (FIG. 9B),[1],0.587
same,OD405 readings (FIG. 11D),[1],3.429 and 3.249 and 3.164
same,A1-Results AVG,[3],3.240
same,A1-Results R1,[3],3.265
same,A1-Results R3,[3],3.230
same,OD405 readings (FIG. 6D),[3],3.431 and 3.502 and 3.61
same,OD405 readings (FIG. 11B),[3],3.360 and 3.238 and 3.273
same,prediction based on OD405 values (FIG. 6B),[3],incorrectly predicted
ClCCCCBr [1-Bromo-4-chlorobutane],OD405 reading (FIG. 9B),[1],0.799
same,A1-Results R1,[3]; [8],3.387
same,A1-Results R3,[3]; [8],3.502
same,A1-Results AVG,[3]; [9],3.464
CCCCCCCC(=O)O [Octanoic Acid],OD405 readings (FIG. 11D),[1]; [10],3.283 and 3.408 and 3.220
same,in vivo GHS,"[2]; rabbit, in vivo",Cat. 1B/1C
same,A1-Results R1,[3]; [8],0.741
same,A1-Results R3,[3]; [8],0.860
same,OD405 readings (FIG. 11B),[3]; [10],1.427 and 1.415 and 1.416
same,A1-Results AVG,[3]; [9],0.797
same,prediction based on OD405 values (FIG. 6B),[3]; [11],incorrectly predicted
same,OD405 readings (FIG. 6D),[3]; [12],3.462 and 3.491 and 3.333
CC(=O)O [Acetic acid],Corrosive,"[2]; rabbit, in vivo",Yes
same,percent of phosphatase measured (first reading),[4],19.1%
same,percent of phosphatase measured (second reading),[4],18.6%
same,"percent of phosphatase measured, average",[4],18.9%
same,A1-Results AVG,[3],0.096
same,A1-Results R1,[3],0.096
same,A1-Results R3,[3],0.096
same,optical density readings (FIG. 3A),[3],0.106 and 0.102 and 0.103
same,optical density readings (FIG. 3B),[6],0.104 and 0.129 and 0.101
[K+].[OH-] [Potassium hydroxide (10%)],in vivo GHS,[2]; [7],Cat. 1B (Category 1B (corrosive responses in at least one animal during exposure period of ≤1 hour))
same,A1-Results R1,[3]; [8],0.118
same,A1-Results R3,[3]; [8],0.112
same,A1-Results AVG,[3]; [9],0.114
same,prediction based on OD405 values (FIG. 6D),[6],correctly predicted
same,optical density readings (FIG. 4),[6]; [16],0.123 and 0.124
NCCO [Ethanolamine],Corrosive,"[2]; rabbit, in vivo",Yes
same,percent of phosphatase measured (first reading),[4],20.1%
same,percent of phosphatase measured (second reading),[4],19.6%
same,"percent of phosphatase measured, average",[4],19.9%
same,optical density readings (FIG. 3A),[3],0.170 and 0.166 and 0.172
same,optical density readings (FIG. 3B),[6],0.174 and 0.185 and 0.175
Cc1ccc(C(C)C)cc1O,OD405 readings (FIG. 11D),[1]; [10],3.444 and 3.465 and 3.398
same,in vivo GHS,[2]; [7],Cat. 1B/1C
same,A1-Results R1,[3]; [8],0.211
same,A1-Results R3,[3]; [8],0.272
same,OD405 readings (FIG. 11B),[3]; [10],1.990 and 1.926
same,A1-Results AVG,[3]; [9],0.242
same,prediction based on OD405 values (FIG. 6B),[3]; [11],incorrectly predicted
same,OD405 readings (FIG. 6D),[3]; [12],0.991 and 0.974 and 1.167
